Reference: patent publication US7138361B2, “Herbicidal heterocycles” (E. I. du Pont de Nemours and Company, priority 2000, dated 2006)

Legend:
Type in all cases: in vivo
[1] = system: crabgrass (Digitaria sanguinalis); experiment: Test B postemergence; conditions: Rate 125 g/ha, scale 0 to 100, 0 no effect, 100 complete control
In short: (§1)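 Seeds were planted and sprayed preemergence with test chemical in a non-phytotoxic solvent mixture containing surfactant; postemergence plants (2 to 18 cm, 1- to 4-leaf stage) received the same formulation. Greenhouse hold 13 to 15 days, then visual rating versus untreated controls on a 0–100 scale (0 no effect, 100 complete control).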

[2] = system: Surinam grass (Brachiaria decumbens); experiment: Test B postemergence
In short: as §1

wild oat (Avena fatua) = experiment: Test B postemergence; conditions: Rate 125 g/ha, scale 0 to 100, 0 no effect, 100 complete control
In short: as §1

[3] = system: giant foxtail (Setaria faberii); experiment: Test B postemergence; conditions: Rate 125 g/ha, scale 0 to 100, 0 no effect, 100 complete control
In short: as §1

[4] = system: lambsquarters (Chenopodium album); experiment: Test B postemergence; conditions: Rate 125 g/ha, scale 0 to 100, 0 no effect, 100 complete control
In short: as §1

[5] = system: cocklebur (Xanthium strumarium); experiment: Test B postemergence
In short: as §1

[6] = system: barnyardgrass (Echinochloa crus-galli); experiment: Test B postemergence
In short: as §1

[7] = system: blackgrass (Alopecurus myosuroides); experiment: Test B postemergence
In short: as §1

[8] = system: pigweed (Amaranthus retroflexus); experiment: Test B postemergence; conditions: Rate 125 g/ha, scale 0 to 100, 0 no effect, 100 complete control
In short: as §1

[9] = system: morning glory (Ipomoea hederacea); experiment: Test B postemergence; conditions: Rate 125 g/ha, scale 0 to 100, 0 no effect, 100 complete control
In short: as §1

[10] = system: velvetleaf (Abutilon theophrasti); experiment: Test B postemergence; conditions: Rate 125 g/ha, scale 0 to 100, 0 no effect, 100 complete control
In short: as §1

corn (Zea mays) [11] = experiment: Test B postemergence
In short: as §1

[12] = system: wheat (Triticum aestivum); experiment: Test B postemergence; conditions: Rate 125 g/ha, scale 0 to 100, 0 no effect, 100 complete control
In short: as §1

[13] = system: duck salad (Heteranthera limosa); experiment: Test C flooded paddy test; conditions: for Plant response rating, Ducksalad: scale 0 to 100 (0 no effect, 100 complete control)
In short: (§2)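 Visually assessed vs untreated controls 12–14 d post-treatment (greenhouse). Flooded paddy plants were at the 2-leaf stage; scale 0 = no effect, 100 = complete control.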

rice (Oryza saliva) [14] = experiment: Test C flooded paddy test; conditions: for Plant response rating, Rice: scale 0 to 100 (0 no effect, 100 complete control)
In short: as §2

[15] = system: barnyardgrass (Echinochloa crus-galli); experiment: Test C flooded paddy test; conditions: for Plant response rating, Barnyardgrass: scale 0 to 100 (0 no effect, 100 complete control)
In short: as §2

[16] = system: smallflower flatsedge (Cyperus difformis); experiment: Test C flooded paddy test; conditions: for Plant response rating, Flatsedge: scale 0 to 100 (0 no effect, 100 complete control)
In short: as §2

[17] = system: crabgrass (Digitaria sanguinalis); experiment: Test B preemergence
In short: as §1

[18] = system: Surinam grass (Brachiaria decumbens); experiment: Test B preemergence
In short: as §1

rice (Oryza saliva) [19] = experiment: Test B preemergence
In short: as §1

[20] = system: giant foxtail (Setaria faberii); experiment: Test B preemergence
In short: as §1

[21] = system: lambsquarters (Chenopodium album); experiment: Test B preemergence
In short: as §1

[22] = system: cocklebur (Xanthium strumarium); experiment: Test B preemergence
In short: as §1

[23] = system: barnyardgrass (Echinochloa crus-galli); experiment: Test B preemergence
In short: as §1

[24] = system: pigweed (Amaranthus retroflexus); experiment: Test B preemergence
In short: as §1

[25] = system: morning glory (Ipomoea hederacea); experiment: Test B preemergence
In short: as §1

[26] = system: velvetleaf (Abutilon theophrasti); experiment: Test B preemergence
In short: as §1

corn (Zea mays) [27] = experiment: Test B preemergence
In short: as §1

[28] = Rate 125 g/ha, scale 0 to 100, 0 no effect, 100 complete control
[29] = Rate 500 g/ha, scale 0 to 100, 0 is no effect, 100 is complete control, 13 to 15 days
[30] = Flooded Paddy, Rate 500 g/ha, scale 0 to 100, 0 no effect, 100 complete control
[31] = flooded paddy test, Rate 125 g/ha
[32] = flooded paddy test, Rate 250 g/ha
[33] = flooded paddy test, Rate 62 g/ha, visually evaluated after 12 to 14 days, 0 = no effect, 100 = complete control
[34] = Preemergence, Rate 500 g/ha, scale 0 to 100, 0 no effect, 100 complete control
[35] = preemergence, Rate 125 g/ha, scale of 0 to 100 where 0 is no effect and 100 is complete control, 13 to 15 days

## COc1cc(N2CCC(n3ccc(C(C)(C)C)n3)C2=O)cc2ccccc12 (centres unmarked) [Compound 136]
[1]
  Plant response rating, Crabgrass: 0
[2]; [28]
  Plant response rating, Surinam grass: 0
[2]; [29]
  Plant response rating, Surinam grass: 0
Wild oat (Avena fatua)
  Plant response rating, Wild Oat: 0
[3]
  Plant response rating, Foxtail, Giant: 0
[4]
  Plant response rating, Lambsquarters: 0
[5]; [28]
  Plant response rating, Cocklebur: 0
[5]; [29]
  Plant response rating, Cocklebur: 0
[6]; [28]
  Plant response rating, Barnyardgrass: 0
[6]; [29]
  Plant response rating, Barnyardgrass: 0
[7]; [28]
  Plant response rating, Blackgrass: 0
[7]; [29]
  Plant response rating, Blackgrass: 0
[8]
  Plant response rating, Pigweed: 0
[9]
  Plant response rating, Morningglory: 0
[10]
  Plant response rating, Velvetleaf: 0
Corn (Zea mays) [11]; [28]
  Plant response rating, Corn: 0
Corn (Zea mays) [11]; [29]
  Plant response rating, Corn: 0
[12]
  Plant response rating, Wheat: 0
[13]; [30]
  Ducksalad plant response rating: 0
[13]; [31]
  Plant response rating, Ducksalad: 0
[13]; [32]
  Plant response rating, Ducksalad: 0
[13]; [33]
  Plant response rating (scale 0 to 100), Ducksalad: 0
Rice (Oryza saliva) [14]; [30]
  Rice plant response rating: 0
Rice (Oryza saliva) [14]; [31]
  Plant response rating, Rice: 0
Rice (Oryza saliva) [14]; [32]
  Plant response rating, Rice: 0
Rice (Oryza saliva) [14]; [33]
  Plant response rating (scale 0 to 100), Rice: 0
[15]; [30]
  Barnyardgrass plant response rating: 0
[15]; [31]
  Plant response rating, Barnyardgrass: 0
[15]; [32]
  Plant response rating, Barnyardgrass: 0
[15]; [33]
  Plant response rating (scale 0 to 100), Barnyardgrass: 0
[16]; [30]
  Flatsedge plant response rating: 0
[16]; [31]
  Plant response rating, Flatsedge: 0
[16]; [32]
  Plant response rating, Flatsedge: 0
[16]; [33]
  Plant response rating (scale 0 to 100), Flatsedge: 0
[17]; [34]
  Plant response rating, Crabgrass: 70
[17]; [35]
  Plant response rating, Crabgrass: 0
[18]; [34]
  Plant response rating, Surinam grass: 0
[18]; [35]
  Plant response rating, Surinam grass: 0
Rice (Oryza saliva) [19]; [34]
  Plant response rating, Rice: 0
Rice (Oryza saliva) [19]; [35]
  Plant response rating, Rice: 0
[20]; [34]
  Plant response rating, Foxtail, Giant: 0
[20]; [35]
  Plant response rating, Foxtail, Giant: 0
[21]; [34]
  Plant response rating, Lambsquarters: 100
[21]; [35]
  Plant response rating, Lambsquarters: 100
[22]; [34]
  Plant response rating, Cocklebur: 0
[22]; [35]
  Plant response rating, Cocklebur: 0
[23]; [34]
  Plant response rating, Barnyardgrass: 0
[23]; [35]
  Plant response rating, Barnyardgrass: 0
[24]; [34]
  Plant response rating, Pigweed: 60
[24]; [35]
  Plant response rating, Pigweed: 0
[25]; [34]
  Plant response rating, Morningglory: 0
[25]; [35]
  Plant response rating, Morningglory: 0
[26]; [34]
  Plant response rating, Velvetleaf: 0
[26]; [35]
  Plant response rating, Velvetleaf: 0
Corn (Zea mays) [27]; [34]
  Plant response rating, Corn: 0
Corn (Zea mays) [27]; [35]
  Plant response rating, Corn: 0
